From EP3466279B1, “PRODUCTION METHOD OF COMPOSITION USING INSECT AS A RAW MATERIAL” (National University Corporation Ehime University, priority 2016, dated 2017)

Legend:
[1] = tested on: mouse macrophage cell line (RAW264 cells); assay: Immunosuppressive action: inhibition of LPS-induced nitrogen monoxide production; assay type: cell-based; settings: LPS 100 ng/mL; 1,2-benzenediol 0 µg/mL to 10 µg/mL; FIG. 4
Method: A substance contained in Antheraea yamamai pupae and Bombyx mori pupae and having an immunosuppressive action on humans or animals having ate the insects was identified. Distilled water was added to a dry powder of Antheraea yamamai pupae and a dried powder of Bombyx mori pupae and the mixture was stirred and centrifugally separated to obtain the supernatant. Ethyl acetate was added to the resultant supernatant to cause liquid-liquid partition, and the resultant ethyl acetate layer was evaporated to dryness by distilling off the solvent with a rotary evaporator. Distilled water was added to the residue, which was added to a C18 solid phase column, and the flow-through fraction was recovered. The resultant flow-through fraction was eluted with high performance liquid chromatography (Develosil C30 column), and the immunosuppressive action of each eluted fraction obtained was measured. […]
Whether 1,2-benzenediol identified from Antheraea yamamai pupae and Bombyx mori pupae has an immunosuppressive action or not was evaluated by the production of nitrogen monoxide from a mouse macrophage cell line (RAW264 cells) as an indicator.

[2] = tested on: mouse macrophage cell line (RAW264 cells); assay type: cell-based

Oc1ccccc1O [1,2-benzenediol]
inhibition of nitrogen monoxide production [1]: inhibition of nitrogen monoxide production was observed depending on the concentration
growth inhibition of a mouse macrophage cell line (concentration at which confirmed) [2]: ≥ 1 µg/mL
